Experimental data published in patent US6818407B2, “Anti-endotoxic antimicrobial cationic peptides and methods of use therfor” (priority 1998, dated 2004).
Ends that are not written are not given here.

Assays:
[1] = system: Vibrio anguillarum (Va); assay type: cell-based; conditions: Mueller Hinton Broth
Description: (§1) The biological activity of the peptides can be determined by standard methods known to those of skill in the art, such as Aminimal inhibitory concentration (MIC)≅ assay described in the present examples, whereby the lowest concentration at which no change in OD is observed for a given period of time is recorded as MIC. Alternatively, Afractional inhibitory concentration (FIC)≅ is also useful for determination of synergy between the peptides of the invention, or the peptides in combination with known antibiotics. FICs are performed by checkerboard titrations of peptides in one dimension of a microtiter plate, and of antibiotics in the other dimension, for example. The FIC is calculated by looking at the impact of one antibiotic on the MIC of the other and vice versa. […] Preferably, an FIC of less than 0.5 is obtained for synergism. As used herein, FIC can be determined as follows: [formula]
(§2) These peptides varied in activity (Table 11), however, the C-terminally capped pleurocidin especially and its N-terminally capped lysine derivative had much better activities against a variety of bacteria including Vibrio anguillarum (Va), Aeromonas salmonicida (As), Staphylococcus epidermidis (C621), Salmonella typhimurium wild type (C587) and phoP phoQ mutant (C610), and Pseudomonas aeruginosa wild type (K799) and outer membrane barrier altered (Z61). The antimicrobial peptide CEME, a fusion peptide made from portions of an insect defensin ceropin A and the bee venom peptide melittin (Piers and Hancock, Mol. Microbiol., 12:951-8, 1994), as well as the known antibiotics polymyxin B and gentamicin were used as controls. Replacing the pleurocidin N-terminus with the dermaseptin N-terminus had no effect. Replacing pleurocidin N-terminus with the ceratoxin N-terminus reduced activity. […] Amidating the C-terminus improved antimicrobial activity. Replacing the pleurocidin C-terminus with the misgurin C-terminus had no effect.
(§3) Bacteria included Vibrio anguillarum (Va), Aeromonas salmonicida (As), Staphylococcus epidermidis (C621), Salmonella typhimurium wild type (C587) and phoP phoQ mutant (C6 10), and Pseudomonas aeruginosa wild type (K799) and outer membrane barrier altered (Z61).

[2] = system: Salmonella typhimurium wild type (C587); assay type: cell-based; conditions: Mueller Hinton Broth
Description: as §1, §2, §3

[3] = system: Pseudomonas aeruginosa wild type (K799); assay type: cell-based; conditions: Mueller Hinton Broth
Description: as §1, §2, §3

[4] = system: Salmonella typhimurium phoP phoQ mutant (C610); assay type: cell-based; conditions: Mueller Hinton Broth
Description: as §1, §2, §3

[5] = system: Pseudomonas aeruginosa outer membrane barrier altered (Z61); assay type: cell-based; conditions: Mueller Hinton Broth
Description: as §1, §2, §3

[6] = system: Aeromonas salmonicida (As); assay type: cell-based; conditions: Mueller Hinton Broth
Description: as §1, §2, §3

[7] = system: Staphylococcus epidermidis (C621); assay type: cell-based; conditions: Mueller Hinton Broth
Description: as §1, §2, §3

[8] = system: Salmonella typhi; test: Synergy study (checkerboard titration) with hen white lysozyme; assay type: cell-based
Description: as §1

[9] = system: P. aeruginosa (H103); test: as above; assay type: cell-based; conditions: for Lowest [CP] showing synergy: cationic peptide concentration, combined with lysozyme; for Lowest [Lyso] showing synergy: lysozyme concentration, combined with the peptide
Description: as §1

[10] = system: E. coli; test: as above; assay type: cell-based; conditions: for Lowest [CP] showing synergy: cationic peptide concentration, combined with lysozyme; for Lowest [Lyso] showing synergy: lysozyme concentration, combined with the peptide
Description: as §1

[11] = system: S. aureus K147; test: MIC, broth microdilution assay in polypropylene microtiter trays; assay type: cell-based; conditions: average of three separate experiments
Description: as §1
(§4) A method which employed polypropylene microtiter trays in a broth microdilution assay was developed.

[12] = system: P. aeruginosa; test: as above; assay type: cell-based; conditions: average of three separate experiments
Description: as §1, §4

[13] = system: E. coli; test: as above; assay type: cell-based; conditions: average of three separate experiments
Description: as §1, §4

[14] = system: S. aureus; test: as above; assay type: cell-based; conditions: average of three separate experiments
Description: as §1, §4

[15] = system: β-lactamase derepressed mutant (H547) of P. aeruginosa; test: microbe, parasite or virus in culture; assay type: cell-based; conditions: P. aeruginosa H547; for (B) MIC of Carb when combined with peptide: Carbenicillin with peptide at concentration (A); for FIC index: peptide + Carbenicillin, about 0.5 or less synergy, 1.0 additivity, >1.0 antagonism; for MIC A MIC of Peptides: peptide alone; for (A) Peptide doses together with Carb: peptide concentration in combination with Carbenicillin
Description: as §1
(§5) To test whether the peptides of the invention synergize with various antibiotics, the following method was employed. Fractional Inhibitory Concentration (FIC) was used to determine synergy of peptides combined with antibiotics (e.g., carbenicillin/ciprofloxacin) against Pseudomonas aeruginosa. The following methodology was followed:
(§6) (1) Determination of MIC of cationic peptides (MIC A):
(§7) 100 μl Mueller Hinton broth (MHB) was added per well
(§8) 12.5 μl of 10× test concentration peptide was added per well to get final peptide concentration of e.g., 128, 64, 32, . . . 0.025 μg/ml from row 1 to 11;
(§9) 10 μl of 10^−4 dilution of overnight bacterial culture was added per well.
(§10) (2) Determination of MIC of Carbenicillin/Ciprofloxacin (MIC B):
(§11) 100 μl MHB was added per well;
(§12) 100 μl of 2× test concentration of antibiotic was added in the first well of the row, and doubling dilutions performed across the plate from column 1 to 11;
(§13) (3) Determination of MIC of antibiotics (B) when combined with peptides at concentration A:
(§14) 100 μl Carbenicillin (512 μg/ml) or Ciprofloxacin (8 μg/ml) was added in each well of column 1; doubling dilutions were performed across the plate;
(§15) 100 μl of the peptide was added in all wells of row 1, mixed, and 100 μl withdrawn and added to row 2, etc., creating a checkerboard titration.
(§16) 10 μl of 10^−4 dilution of overnight culture was added per well;
(§17) plates were incubated at 37EC for 18-24 hours. Combination MIC values A and B were taken as the lowest concentration of drug that reduced bacterial growth by more than 50% in any given column.
(§18) (4) FIC index=FICA+FICB=(A)/MIC A+(B)/MIC B. An FIC index of approximately 0.5 or less indicates synergy; 1.0 reflects additivity; and >1.0 indicates antagonism.

[16] = system: P. aeruginosa efflux mutant (Nal B, H744); test: microbe, parasite or virus in culture; assay type: cell-based; conditions: for (B) MIC of Nal when combined with peptide: nalidixic acid with peptide at concentration (A), unit from method; for (B) MIC of Nal when combined with peptide / FIC index / (A) Peptide doses together with Nal: efflux mutant Nal B, H744; for FIC index: peptide + nalidixic acid; for MIC A MIC of Peptides: peptide alone, P. aeruginosa efflux mutant Nal B, H744 (Table 6); for (A) Peptide doses together with Nal: peptide concentration in combination with nalidixic acid
Description: as §1, §5, §6, §7, §8, §9, §10, §11, §12, §13, §14, §15, §16, §17, §18

[17] = system: mutant (Nal B, H744) of P. aeruginosa; test: microbe, parasite or virus in culture; assay type: cell-based; conditions: for (B) MIC of Cipro when combined with peptide: ciprofloxacin with peptide at concentration (A); for (B) MIC of Cipro when combined with peptide / FIC index / (A) Peptide doses together with Cipro: Nal B, H744; for FIC index: peptide + ciprofloxacin; for MIC A MIC of Peptides: peptide alone, P. aeruginosa mutant Nal B, H744 (Table 5); for (A) Peptide doses together with Cipro: peptide concentration in combination with ciprofloxacin
Description: as §1, §5, §6, §7, §8, §9, §10, §11, §12, §13, §14, §15, §16, §17, §18

[18] = system: P. aeruginosa gyrase mutant (Nal A, H374); assay type: cell-based; conditions: for (B) MIC of Nal when combined with peptide: nalidixic acid with peptide at concentration (A), unit from method; for (B) MIC of Nal when combined with peptide / FIC index / (A) Peptide doses together with Nal: Nal A; for FIC index: peptide + nalidixic acid; for MIC A MIC of Peptides: peptide alone, P. aeruginosa gyrase mutant Nal A; for (A) Peptide doses together with Nal: peptide concentration in combination with nalidixic acid
Description: as §1, §5, §6, §7, §8, §9, §10, §11, §12, §13, §14, §15, §16, §17, §18

[19] = system: Pseudomonas aeruginosa strain M2; test: Protection of neutropenic CD-1 mice challenged with Pseudomonas aeruginosa; assay type: in vivo; design: Survival post bacterial challenge, surviving mice: reference not given here; conditions: for Survival (%) post bacterial challenge: PBS 8
Description: CD-1 mice were induced to be neutropenic via 3 intraperitoneal injections of cyclophosphamide ([…]) every another day. Immediately after the third administration of cyclophosphamide, the mice were challenged by intraperitoneal injection of Pseudomonas aeruginosa strain M2 (200-300 organisms/mouse). Cationic peptides (200 µg per mouse=8 mg/kg) in 100 µl buffered citrate were injected intraperitoneally at 30 min (single dose) or 30 min and 16 hrs (double dose) post bacterial challenge, respectively. The data were the average values of 2 individual experiments. PBS was used as a control. […] In general single dose protection studies gave better protection than double dose experiments.

Row | Substance | MIC Va [1] [µg/mL] | MIC C587 [2] [µg/mL] | MIC K799 [3] [µg/mL] | MIC C610 [4] [µg/mL] | MIC Z61 [5] [µg/mL] | MIC As [6] [µg/mL] | MIC C621 [7] [µg/mL] | FIC for combination of cationic peptide and lysozyme [8] | FIC for combination of cationic peptide and lysozyme [9] | Lowest [CP] showing synergy [9] [µg/mL] | Lowest [Lyso] showing synergy [9] [µg/mL] | FIC for combination of cationic peptide and lysozyme [10] | Lowest [CP] showing synergy [10] [µg/mL] | Lowest [Lyso] showing synergy [10] [µg/mL] | MIC S. aureus K147 [11] [µg/mL] | MIC P. aeruginosa [12] | MIC E. coli [13] [µg/mL] | MIC S. aureus [14] [µg/mL] | (B) MIC of Carb when combined with peptide [15] [µg/mL] | FIC index [15] | further results
1 | KGWGSFFKKAAHVGKHVGKAALTHYL [Peptide P-1] | 16 | 16 | 32 | <0.5 | 8 | 2 | 64 |  |  |  |  |  |  |  |  |  |  |  |  |  | 
2 | KGWGSFFKKAAHVGKHVGKAALTHYL-NH2 [Peptide P-1-CN] | 2 | 2 | 8 | <0.5 | 2 | 1 | 2 |  |  |  |  |  |  |  |  |  |  |  |  |  | 
3 | KKWKKFIKKIGIGAVLTTPGAKK [CPα3] |  |  |  |  |  |  |  | Confluent | 0.08 | 1.3 | 7.8 | 0.31 | 0.65 | 62.5 | >64 | ≧64 μg/ml | 4 | >64 | 32 | 0.75 | MIC A MIC of Peptides [15]: 16 µg/mL; (A) Peptide doses together with Carb [15]: 4 µg/mL; (B) MIC of Nal when combined with peptide [16]: 400 µg/mL; FIC index [16]: 0.50; MIC A MIC of Peptides [16]: 4 µg/mL; (A) Peptide doses together with Nal [16]: 1 µg/mL; (B) MIC of Cipro when combined with peptide [17]: .125 µg/mL; FIC index [17]: .75; MIC A MIC of Peptides [17]: 4 µg/mL; (A) Peptide doses together with Cipro [17]: 1 µg/mL; (B) MIC of Nal when combined with peptide [18]: 800 µg/mL; FIC index [18]: 0.50; MIC A MIC of Peptides [18]: 8 µg/mL; (A) Peptide doses together with Nal [18]: 1 µg/mL
4 | KWKSFIKKLTSAAKKVTTAAKPLTK [CPα1] |  |  |  |  |  |  |  | 0.63 | 0.28 | 5.21 | 7.8 | 0.31 | 0.65 | 7.8 | >64 | ≧64 μg/ml | 1.5 | >64 | 32 | 0.75 | Lowest [CP] showing synergy ([8]; cationic peptide concentration, combined with lysozyme): 41.7 µg/mL; Lowest [Lyso] showing synergy ([8]; lysozyme concentration, combined with the peptide): 125 µg/mL; MIC A MIC of Peptides [15]: 16 µg/mL; (A) Peptide doses together with Carb [15]: 4 µg/mL; (B) MIC of Nal when combined with peptide [16]: 400 µg/mL; FIC index [16]: 0.38; MIC A MIC of Peptides [16]: 8 µg/mL; (A) Peptide doses together with Nal [16]: 1 µg/mL; (B) MIC of Cipro when combined with peptide [17]: .125 µg/mL; FIC index [17]: .63; MIC A MIC of Peptides [17]: 8 µg/mL; (A) Peptide doses together with Cipro [17]: 1 µg/mL; (B) MIC of Nal when combined with peptide [18]: 800 µg/mL; FIC index [18]: 0.38; MIC A MIC of Peptides [18]: 8 µg/mL; (A) Peptide doses together with Nal [18]: 1 µg/mL
5 | KWKSFIKKLTSAAKKVVTTAKPLISS (H-KWKSFIKKLTSAAKKVVTTAKPLISS-OH) [CP26, reference compound] |  |  |  |  |  |  |  |  |  |  |  |  |  |  |  |  |  |  |  |  | Survival post bacterial challenge, surviving mice ([19]; single dose (200 μg per mouse i.p. at 30 min), 16 hr): 8; Survival post bacterial challenge, surviving mice ([19]; single dose, 24 hr): 8; Survival post bacterial challenge, surviving mice ([19]; single dose, 41 hr): 6; Survival post bacterial challenge, surviving mice ([19]; single dose, 48 hr): 4; Survival post bacterial challenge, surviving mice ([19]; single dose, 64 hr): 3; Survival (%) post bacterial challenge ([19]; single dose, 64 hr): 37%; Survival post bacterial challenge, surviving mice ([19]; single dose, 72 hr): 3; Survival (%) post bacterial challenge ([19]; single dose, 72 hr): 37%; Survival post bacterial challenge, surviving mice ([19]; single dose, 96 hr): 3; Survival (%) post bacterial challenge ([19]; single dose, 96 hr): 37%
6 | RQRVEELSKFSKKGAAARRRK [Peptide M-0, reference compound] | >64 | >64 | >64 | >64 | >64 | >64 | >64 |  |  |  |  |  |  |  |  |  |  |  |  |  | 
